ChEMBL document CHEMBL1146426, “Isolation and characterization of new anti-HIV and cytotoxic leads from plants, marine, and microbial organisms” (J Nat Prod, 1997)
Converted amounts (≈) assume the structure as drawn.

Key:
[1] = tested on: Human immunodeficiency virus 1; assay: Antiviral activity against HIV1 infected in human CEM-SS cells assessed as inhibition of virus-induced cytopathic effect after 6 days by XTT-based assay; format: functional, organism-based; settings: Human immunodeficiency virus 1, CEM-SS, 144 h
[2] = tested on: CEM-SS; assay: Cytotoxicity against human CEM-SS cells after 6 days by XTT-based assay; format: cell-based; settings: 144 h
[3] = tested on: Human immunodeficiency virus 1; assay: Antiviral activity against HIV1 infected in human CEM-SS cells assessed as protection against viral infection after 6 days by XTT-based assay relative to control; format: functional

| Compound | EC50 [1] [µg/mL] | IC50 [2] [µg/mL] | Activity [3] [%] |
| --- | --- | --- | --- |
| COc1cc2c(cc1CC=C(C)C)[C@@H]1Oc3cc(O)ccc3[C@@H]1CO2 | 0.2 (≈ 0.591 µM) | 3 (≈ 8.87 µM) | 80 |
| COc1ccc2c(c1CC=C(C)C)O[C@H]1c3ccc(O)cc3OC[C@@H]21 [SANDWICENSIN] | 2 (≈ 5.91 µM) | 7 (≈ 20.7 µM) | 50 |
